pIC50: −log10 of the molar value. Each block holds one substance with its values, some of them ahead of it.
How the values were obtained:
[1] = target: T1, Duffy Antigen Receptor for Chemokines (DARC) (Homo sapiens, UniProt Q16570); assay: DARC binding: competition with 125I-labeled MCP-1 on red blood cells; details: for DUFFY SELECTIVITY: Table 7, estimated ka for binding to red blood cells divided by average inhibitory ED50 versus each of the chemokines
T1 sequence (Q16570 1-336): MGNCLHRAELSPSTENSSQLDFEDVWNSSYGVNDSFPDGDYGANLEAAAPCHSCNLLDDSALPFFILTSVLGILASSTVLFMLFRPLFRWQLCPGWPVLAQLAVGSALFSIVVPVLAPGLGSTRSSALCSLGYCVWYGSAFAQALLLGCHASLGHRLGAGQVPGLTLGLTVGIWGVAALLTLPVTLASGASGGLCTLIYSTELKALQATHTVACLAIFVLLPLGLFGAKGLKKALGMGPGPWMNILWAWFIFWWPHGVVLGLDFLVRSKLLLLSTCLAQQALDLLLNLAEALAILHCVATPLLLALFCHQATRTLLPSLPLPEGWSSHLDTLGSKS

[2] = tested on: chemokine-induced THP-1 migration (MCP-1, MIP1α, IL8, SDF1α); assay: Trans-well THP-1 migration assay, across the chemokines tested; type: cell-based, human; details: for selectivity ratio (CC versus CXC chemokines): >1 = greater inhibition of CC chemokines, <1 = of CXC chemokines; for CC SPECIFICITY: Table 7, average inhibitory ED50 versus SDF1 and IL8 divided by average inhibitory ED50 versus MCP-1 and MIP1α
Method: To determine whether an agent inhibits a chemokine-induced activity, such as macrophage recruitment, varying amounts of the agent are mixed with cells in the presence of a known chemoattractant. […] Chemokine (such as MCP-1, MIP1α, IL8 or SDF-1α), at a concentration known to cause significant migration of THP-1 cells in the trans-well migration assay, is placed in the lower compartment (FIG. 1). […] After incubation, the cells are gently removed from the top of the filter with a pipette, 20 μl of 20 mM EDTA in simple PBS is added into each top well, and incubated for 20 minutes at 4° C. The filter is carefully flushed with media using a gentle flow, and removed. […] The media is carefully aspirated from each well, and the converted dye is solubilized by 20 μl of DMSO. Absorbance of converted dye is measured at a wavelength of 595 nm using an ELISA plate reader. The number of migrated cells in each well is then determined by interpolation of the standard curve (see also Imai et al., J. Biol. Chem., 272, 15036 (1997)). […] The framed filter was aligned with the holes in the corner of the filter frame and placed over the wells. Five×10^4 THP-1 cells in 25 μl of RPMI-1640 culture media were added to the upper compartment. Peptides were dissolved in Milli Q water and then serially diluted in culture medium. In most cases, the serially diluted peptides were added to the upper compartment of the chemotaxis chamber. […] After incubation, the cells were gently removed from the top of the filter with a pipette, 20 μl of 20 mM EDTA in PBS was added into each top well, and the mixture was incubated for 20 minutes at 4° C. The filter was then carefully flushed with media using a gentle flow, and removed. […] The media was carefully aspirated from each well, and the converted dye was solubilized by 20 μl of DMSO. Absorbance of converted dye was measured at a wavelength of 595 nm using an ELISA plate reader. […] Representative chemokines included a beta-chemokine (“CC”), MIP-1α, and two alpha-chemokines (“CXC”), IL-8 and SDF-1α. […]

[3] = tested on: MCP-1 induced THP-1 migration; assay: Trans-well THP-1 migration assay, MCP-1 as chemoattractant; type: cell-based, human
Method: (§1) FIG. 1 is a schematic of the trans-well migration assay. In most experiments, the peptide (wavy line) is added to the upper well with about 50,000 cells (O). The upper and lower wells are separated by a 5 μm or 8 μm pore size PVP-free membrane (- - - -). Chemokine (●) is added to the lower well. After 4 hours, the number of cells that have migrated through the membrane are measured (◯ in lower well).
To determine whether an agent inhibits a chemokine-induced activity, such as macrophage recruitment, varying amounts of the agent are mixed with cells in the presence of a known chemoattractant. For example, a range of known concentrations of an agent, e.g., a chemokine peptide, is incubated with a defined number (e.g., 10^4-10^6) of human THP-1 monocyte cells in individual wells of the top compartment of a trans-well plate. Chemokine (such as MCP-1, MIP1α, IL8 or SDF-1α), at a concentration known to cause significant migration of THP-1 cells in the trans-well migration assay, is placed in the lower compartment (FIG. 1). Cells are then incubated at 37° C. for a period sufficient to allow migration, e.g., 4 hours. After incubation, the cells are gently removed from the top of the filter with a pipette, 20 μl of 20 mM EDTA in simple PBS is added into each top well, and incubated for 20 minutes at 4° C. The filter is carefully flushed with media using a gentle flow, and removed. A standard curve consisting of a two-fold dilution series of THP-1 cells (in 29 μl) is prepared to accurately quantify the number of cells that have migrated. Migrated cells are stained with 3 μl of MTT stock dye solution which is added directly into each well (5 mg/ml in RPMI-1640 without phenol red, Sigma Chemical Co.) and incubated at 37° C. for 4 hours. The media is carefully aspirated from each well, and the converted dye is solubilized by 20 μl of DMSO. Absorbance of converted dye is measured at a wavelength of 595 nm using an ELISA plate reader. The number of migrated cells in each well is then determined by interpolation of the standard curve (see also Imai et al., J. Biol. Chem., 272, 15036 (1997)).
Any method suitable for counting cells can be used, for example, counting with a hemocytometer, incubation of the cells with MTT (see above), or FACS analysis. A negative control assay is also performed, using TGF-β or another non-chemokine chemoattractant (e.g., IL1β or TNFα). To assess whether the agent is cytotoxic, the same concentrations of agent are incubated with THP-1 cells. Agents which 1) are not cytotoxic at levels which inhibit migration, 2) are ineffective at inhibiting the negative control-induced migration, and 3) reduce or inhibit chemokine-induced THP-1 migration, are agents which fall within the scope of the invention.
For this assay, THP-1 cells were maintained at a density of 4×10^5 cells per ml in RPMI-1640 supplemented with 10% fetal calf serum+20 μM 2-mercaptoethanol. Chemotaxis was induced in a 96-well disposable chemotaxis chamber fitted with a […] polycarbonate filter (PVP free, ChemoTX, Neuroprobe Inc., Cabin John). Twenty-nine μl of chemoattractant (recombinant human chemokine; 50 ng/ml, i.e., 5.9 nM) or control (100 ng/ml TGFβ) was added to the lower compartment of each well. The framed filter was aligned with the holes in the corner of the filter frame and placed over the wells. Five×10^4 THP-1 cells in 25 μl of RPMI-1640 culture media were added to the upper compartment. Peptides were dissolved in Milli Q water and then serially diluted in culture medium. In most cases, the serially diluted peptides were added to the upper compartment of the chemotaxis chamber. The chamber was incubated at 37° C. in a humidified atmosphere of 5% CO2 for 4 hours.
After incubation, the cells were gently removed from the top of the filter with a pipette, 20 μl of 20 mM EDTA in PBS was added into each top well, and the mixture was incubated for 20 minutes at 4° C. The filter was then carefully flushed with media using a gentle flow, and removed. […]

[4] = tested on: IL8 induced THP-1 migration; assay: Trans-well THP-1 migration assay, IL8 as chemoattractant; type: cell-based, human; details: THP-1 migration
Method: as §1
(§2) To determine whether an agent inhibits a chemokine-induced activity, such as macrophage recruitment, varying amounts of the agent are mixed with cells in the presence of a known chemoattractant. For example, a range of known concentrations of an agent, e.g., a chemokine peptide, is incubated with a defined number (e.g., 10^4-10^6) of human THP-1 monocyte cells in individual wells of the top compartment of a trans-well plate. […] A standard curve consisting of a two-fold dilution series of THP-1 cells (in 29 μl) is prepared to accurately quantify the number of cells that have migrated. […] Absorbance of converted dye is measured at a wavelength of 595 nm using an ELISA plate reader. The number of migrated cells in each well is then determined by interpolation of the standard curve (see also Imai et al., J. Biol. Chem., 272, 15036 (1997)). […]

[5] = tested on: SDF-1α induced THP-1 migration; assay: Trans-well THP-1 migration assay, SDF-1α as chemoattractant; type: cell-based, human; details: THP-1 migration
Method: as §1, §2

DUFFY SELECTIVITY [1]: 2.00
Substance: EICADPSQKWVQ [Ser7peptide 3]
selectivity ratio (CC versus CXC chemokines) [2]: 0.5
CC SPECIFICITY [2]: 0.5

DARC binding, in words [1]: essentially no DARC binding capacity
pIC50 ([3]; derivatives of leu4ile11peptide 3, read-out: MCP-1 inhibitory activity in the THP-1 transwell assay): 5.30 to 6.00
Substance: EICLDPKQKWIQ [Leu4ile11peptide 3]
concentrations inhibiting MCP1 induced migration [3]: around 1 μM
potency as an inhibitor of MCP-1 signaling relative to peptide 3(1-12)[MCP-1] [3]: approximately 5 fold
potency as an inhibitor of CC chemokines relative to peptide 3(1-12)[MCP-1] [2]: approximately 5 fold
selectivity ratio (CC versus CXC chemokines) [2]: 2.0
CC SPECIFICITY [2]: 2.0

Substance: EICLDPKQKWVQ [Leu4peptide 3]
increase in potency as an inhibitor of CXC chemokines compared with peptide 3(1-12)[MCP-1] [2]: approximately 4 fold
selectivity ratio (CC versus CXC chemokines) [2]: 0.37
CC SPECIFICITY [2]: 0.4

Substance: GGR [reference compound]
inhibition of THP-1 cell migration induced by MCP-1, MIP1α, IL-8 and SDF1α, in words [2]: None of these significantly inhibited

Substance: KEN [cognate tripeptide from IL8]
inhibition of IL8, in words [4]: specific and potent inhibitor
CC SPECIFICITY [2]: <0.1

Substance: KLK [cognate tripeptide from SDF1]
inhibition of SDF1, in words [5]: specific and potent inhibitor
CC SPECIFICITY [2]: <0.1

DUFFY SELECTIVITY [1]: 2.94
DARC specificity ratio / Duffy selectivity ([1]; estimated ka for association with DARC divided by the ED50 for biological activity): about 3.0
Substance: KQKWVQ [Peptide 3[7-12]]
selectivity ratio (CC versus CXC chemokines) [2]: 1.1
CC SPECIFICITY [2]: 1.0

Substance: Leu4ile11peptide 3(3-12)[MCP-1]: leu4ile11 variant of peptide 3(3-12)[MCP-1] (CLDPKKEWIQ)
affinity relative to peptide 3(1-12)[MCP-1] ([2]; in words): higher affinity peptide analog

Substance: RGD [reference compound]
inhibition of THP-1 cell migration induced by MCP-1, MIP1α, IL-8 and SDF1α, in words [2]: None of these significantly inhibited

Substance: TTT [reference compound]
inhibition of THP-1 cell migration induced by MCP-1, MIP1α, IL-8 and SDF1α, in words [2]: None of these significantly inhibited

Substance: WIQ
CC SPECIFICITY [2]: 1.0

— US6989435B2, “Compounds and methods to inhibit or augment an inflammatory response” (Cambridge University Technical Services Ltd., priority 1997, dated 2006)
